Values quoted from earlier work as cited in PubChem BioAssay AID1259409 (Chemical Carcinogenesis Research Information System (CCRIS), 2018).

System: rodent chemically induced tumor inhibition, incidence and multiplicity
Assay: CCRIS tumor inhibitor studies
Conditions: Carcinogen: 2,2'-DIHYDROXY-DI-N-PROPYLNITROSAMINE, 53609-64-6, 13147-25-6, Carcinogen: 2,2'-DIHYDROXY-DI-N-PROPYLNITROSAMINE, 53609-64-6, 13147-25-6, Dose [Inhibitor]: 0, Route [Inhibitor]: ORAL, Species: RAT, Strain/Sex: F344/MALE, Promoter: NONE USED

Q: For `COc1cc(/C=C/C(=O)O[C@H]2CC[C@]34C[C@]35CC[C@]3(C)[C@@H]([C@H](C)CCC=C(C)C)CC[C@@]3(C)[C@@H]5CC[C@H]4C2(C)C)ccc1O`, which “tumour outcome (control, treated, inhibition, significance)” value (N-ETHYL-N-HYDROXYETHYL- NITROSAMINE, 3,2'-DIMETHYL-4-, N-ETHYL-N-HYDROXYETHYL- NITROSAMINE, 3,2'-DIMETHYL-4-, 1% IN DIET BEGINNING 1 WK POST LAST CARCINOGEN DOSE AND CONTINUING FOR 32 WK (STUDY DURATION: 36 WK), Target Tissue: Type of Lesion: LIVER: HEPATOCELLULAR CARCINOMA, Dose [Carcinogen]: 1000 MG/KG IP DHPN 2X, 1500 MG/KG GAV EHEN 2X AND 75 MG/KG SC DMAB 3X GIVEN OVER THE INITIAL 3 WK PERIOD AT 3-4 D INTERV) is on record?
A: The value was 6/14 (43%), 3/13 (23%), 47%, not calculated.

Q: And the “tumour outcome (control, treated, inhibition, significance)” value (N-ETHYL-N-HYDROXYETHYL- NITROSAMINE, 3,2'-DIMETHYL-4-, N-ETHYL-N-HYDROXYETHYL- NITROSAMINE, 3,2'-DIMETHYL-4-, 1% IN DIET BEGINNING 1 WK POST LAST CARCINOGEN DOSE AND CONTINUING FOR 32 WK (STUDY DURATION: 36 WK), Target Tissue: Type of Lesion: LUNG: ADENOMA, Dose [Carcinogen]: 1000 MG/KG IP DHPN 2X, 1500 MG/KG GAV EHEN 2X AND 75 MG/KG SC DMAB 3X GIVEN OVER THE INITIAL 3 WK PERIOD AT 3-4 D INTERV)?
A: Its value is 7/14 (50%), 11/13 (85%), -70%, not calculated.

Q: And the “tumour outcome (control, treated, inhibition, significance)” value (N-ETHYL-N-HYDROXYETHYL- NITROSAMINE, 3,2'-DIMETHYL-4-, N-ETHYL-N-HYDROXYETHYL- NITROSAMINE, 3,2'-DIMETHYL-4-, 1% IN DIET BEGINNING 1 WK POST LAST CARCINOGEN DOSE AND CONTINUING FOR 32 WK (STUDY DURATION: 36 WK), Target Tissue: Type of Lesion: LUNG: CARCINOMA, Dose [Carcinogen]: 1000 MG/KG IP DHPN 2X, 1500 MG/KG GAV EHEN 2X AND 75 MG/KG SC DMAB 3X GIVEN OVER THE INITIAL 3 WK PERIOD AT 3-4 D INTERV)?
A: The value was 1/14 (7%), 7/13 (54%), -671%, p<0.05.

Q: And the outcome (N-ETHYL-N-HYDROXYETHYL- NITROSAMINE, 3,2'-DIMETHYL-4-, N-ETHYL-N-HYDROXYETHYL- NITROSAMINE, 3,2'-DIMETHYL-4-, 1% IN DIET BEGINNING 1 WK POST LAST CARCINOGEN DOSE AND CONTINUING FOR 32 WK (STUDY DURATION: 36 WK), Target Tissue: Type of Lesion: URINARY BLADDER: PAPILLOMA, Dose [Carcinogen]: 1000 MG/KG IP DHPN 2X, 1500 MG/KG GAV EHEN 2X AND 75 MG/KG SC DMAB 3X GIVEN OVER THE INITIAL 3 WK PERIOD AT 3-4 D INTERV)?
A: Its outcome is 0/14 (0%), 3/13 (23%), -100%, not calculated.

Q: What about the “tumour outcome (control, treated, inhibition, significance)” value (N-ETHYL-N-HYDROXYETHYLNITROSAMINE, 3,2'-DIMETHYL-4-AMINO-, N-ETHYL-N-HYDROXYETHYLNITROSAMINE, 3,2'-DIMETHYL-4-AMINO-, 1% IN DIET FOR 32 WK BEGINNING 1 WK POST CARCINOGEN TREATMENT (STUDY DURATION: 36 WK), Target Tissue: Type of Lesion: KIDNEY: ADENOMA, Dose [Carcinogen]: 1000 MG/KG BW DHPN TWICE , 1500 MG/KG BW EHEN TWICE, 75 MG/KG BW 3 TIMES ADMINISTERED OVER FIRST 3 WK) of the same compound?
A: Its value is 6/14 (43%), 9/13 (69%), -60%, not significant.

Q: What about the “tumour outcome (control, treated, inhibition, significance)” value (N-ETHYL-N-HYDROXYETHYLNITROSAMINE, 3,2'-DIMETHYL-4-AMINO-, N-ETHYL-N-HYDROXYETHYLNITROSAMINE, 3,2'-DIMETHYL-4-AMINO-, 1% IN DIET FOR 32 WK BEGINNING 1 WK POST CARCINOGEN TREATMENT (STUDY DURATION: 36 WK), Target Tissue: Type of Lesion: KIDNEY: NEPHROBLASTOMA, Dose [Carcinogen]: 1000 MG/KG BW DHPN TWICE, 1500 MG/KG BW EHEN TWICE, 75 MG/KG BW 3 TIMES ADMINISTERED OVER FIRST 3 WK) of the same compound?
A: The value was 2/14 (14%), 0/13 (0%), 100%, not significant.

Q: What about the “tumour outcome (control, treated, inhibition, significance)” value (N-ETHYL-N-HYDROXYETHYLNITROSAMINE, 3,2'-DIMETHYL-4-AMINO-, N-ETHYL-N-HYDROXYETHYLNITROSAMINE, 3,2'-DIMETHYL-4-AMINO-, 1% IN DIET FOR 32 WK BEGINNING 1 WK POST CARCINOGEN TREATMENT (STUDY DURATION: 36 WK), Target Tissue: Type of Lesion: KIDNEY: TRANSITIONAL CELL CARCINOMA, Dose [Carcinogen]: 1000 MG/KG BW DHPN TWICE , 1500 MG/ KG BW EHEN TWICE, 75 MG/KG BW 3 TIMES ADMINISTERED OVER FIRST THREE WEEKS) of the same compound?
A: Its value is 1/14 (7%), 2/13 (15%), -114%, not significant.

Q: What about the “tumour outcome (control, treated, inhibition, significance)” value (N-ETHYL-N-HYDROXYETHYLNITROSAMINE, 3,2'-DIMETHYL-4-AMINO-, N-ETHYL-N-HYDROXYETHYLNITROSAMINE, 3,2'-DIMETHYL-4-AMINO-, 1% IN DIET FOR 32 WK BEGINNING 1 WK POST CARCINOGEN TREATMENT (STUDY DURATION: 36 WK), Target Tissue: Type of Lesion: LARGE INTESTINE: CARCINOMA, Dose [Carcinogen]: 1000 MG/KG BW DHPN TWICE, 1500 MG/KG BW EHEN TWICE, 75 MG/KG BW 3 TIMES ADMINISTERED OVER 3 WK) of the same compound?
A: Its value is 3/14 (21%), 6/13 (46%), -119%, not significant.

Q: And the “tumour outcome (control, treated, inhibition, significance)” value (N-ETHYL-N-HYDROXYETHYLNITROSAMINE, 3,2'-DIMETHYL-4-AMINO-, N-ETHYL-N-HYDROXYETHYLNITROSAMINE, 3,2'-DIMETHYL-4-AMINO-, 1% IN DIET FOR 32 WK BEGINNING 1 WK POST CARCINOGEN TREATMENT (STUDY DURATION: 36 WK), Target Tissue: Type of Lesion: LIVER: HEPATOCELLULAR CARCINOMA, Dose [Carcinogen]: 1000 MG/KG BW DHPN TWICE , 1500 MG/KG BW EHEN TWICE 75 MG/KG BW 3 TIMES ADMINISTERED OVER FIRST 3 WK)?
A: The value was 6/14 (43%), 3/13 (23%), 47%, not significant.
